Measured values published in ChEMBL document CHEMBL4392857, “Isolation, Chiral-Phase Resolution, and Determination of the Absolute Configurations of a Complete Series of Stereoisomers of a Rearranged Acetophenone with Three Stereocenters” (2019).

Experiments:
HUVEC [1] = assay: Cytoprotective effect against high glucose-induced oxidative stress in HUVEC assessed as cell viability at 1 uM incubated by MTT assay (reference value: 72.1 to 77.9%); assay type: functional; conditions: Homo sapiens, read-out: Activity
HUVEC [2] = assay: Cytoprotective effect against high glucose-induced oxidative stress in HUVEC assessed as cell viability at 5 uM incubated by MTT assay (reference value: 72.1 to 77.9%); assay type: functional; conditions: Homo sapiens, read-out: Activity

Row | Compound | viability at 1 µM (HUVEC [1]) | viability at 5 µM (HUVEC [2])
1 | COC(=O)[C@@]1(O)C(=O)[C@]2(CC=C(C)C)C[C@H](O)C(C)(C)OC2=C1C(C)=O | 103% | 104%
2 | COC(=O)[C@]1(O)C(=O)[C@]2(CC=C(C)C)C[C@@H](O)C(C)(C)OC2=C1C(C)=O | 103% | 104%
3 | COC(=O)[C@@]1(O)C(=O)[C@@]2(CC=C(C)C)C[C@H](O)C(C)(C)OC2=C1C(C)=O | 79.9% | 82%
4 | COC(=O)[C@@]1(O)C(=O)[C@]2(CC=C(C)C)C[C@@H](O)C(C)(C)OC2=C1C(C)=O | 75.6% | 62.7%
5 | COC(=O)[C@]1(O)C(=O)[C@@]2(CC=C(C)C)C[C@@H](O)C(C)(C)OC2=C1C(C)=O | 79.9% | 82%
6 | COC(=O)[C@]1(O)C(=O)[C@@]2(CC=C(C)C)C[C@H](O)C(C)(C)OC2=C1C(C)=O | 71.7% | 65.1%
7 | COC(=O)[C@@]1(O)C(=O)[C@@]2(CC=C(C)C)C[C@@H](O)C(C)(C)OC2=C1C(C)=O | 101% | 101%
8 | Oc1ccc(/C=C/c2cc(O)cc(O)c2)cc1 [RESVERATROL] | 86.4% | 103%
9 | COC(=O)[C@]1(O)C(=O)[C@]2(CC=C(C)C)C[C@H](O)C(C)(C)OC2=C1C(C)=O | 94.2% | 93%
